Tests used:
[1] = Liver microsome stability, mouse; format: in vitro ADME, CD-1 mouse
Text: (§1) Metabolic stability assays are designed to measure the stability of a test compound in a variety of assay matrices from human and animal species. From a metabolism perspective, a drug would be relatively stable, have a small first-pass effect, and maintain an effective concentration in blood for a reasonable period of time. A microsomal preparation from the liver contains all CYP isozymes and other membrane-bound drug metabolizing enzymes which are responsible for the metabolism for the majority of drugs in humans. Metabolic stability in liver microsomes can determine half-life (T1/2) and intrinsic clearance (Clint). The determination of Clint may be useful to determine whether metabolism is the major elimination pathway when it is compared to total body clearance in vivo. For high metabolic stability in liver microsomes: […] Human, Sprague Dawley rat, and CD-1 mouse liver microsome samples were purchased from BD Gentest. An in vitro metabolic stability assay suitable for use in predicting first pass metabolism of the compounds useful in the methods of the invention is described in this example. […] 6 mM NADPH in 0.1 M K-phosphate buffer is prepared by dissolving 25.1 mg of NADPH tetrasodium salt in 5 mL of K-phosphate buffer. […] The plate is pre-incubated at 37° C. for 10 minutes. 15 μL of NADPH stock solution (6 mM) is added to the wells designated for Time 60 and timed. At 30 min, 15 min, and 5 min, 15 μL of NADPH stock solution (6 mM) is added to the wells. At the end of incubation, 135 μL of ACN containing IS is added to all the wells (60 min, 30 min, 15 min, 5 min and 0 min). Then 15 μL of NADPH stock solution (6 mM) is added to the wells designated as Time 0.

[2] = Liver microsome stability, human; format: in vitro ADME; conditions: for liver stability predicted by in vitro PK profiles: human vs rat liver, in words
Text: as §1

[3] = Caco-2 permeability testing; format: in vitro ADME, human; conditions: human; for efflux ratio at 90 min, 10 µM: pH 7.4, Caco-2, Papp (B-A)/Papp (A-B), read-out: Efflux/Permeability ratio (desired <3); for Papp A→B at 90 min, 10 µM: Caco-2, pH 7.4, Caco-2, A-B, read-out: Permeability (second figure of Efflux/permeability), Papp (A-B); for Papp B→A at 90 min, 10 µM: Caco-2, pH 7.4, Caco-2, B-A, read-out: Efflux (first figure of Efflux/permeability), Papp (B-A)
Text: Intestinal epithelium permeability is a critical characteristic that determines the rate and extent of human absorption and affects bioavailability of a drug candidate. Poor intestinal permeability leads to limited absorption. Generally, higher absorption is preferred. The Caco-2 cell line is a human colon adeno-carcinoma cell line that resembles the epithelial lining of the human small intestine. Several transport proteins that are expressed in human intestinal epithelium are also expressed in the Caco-2 cell model. Some transporter proteins are efflux systems which mediate the secretion of compounds from inside the cell back to the apical lumen (representative of the intestinal lumen), limiting overall absorption. In a permeability assay, the apparent permeability coefficient is measured between the apical to basolateral sides of a cell monolayer, Papp (A-B), and the basolateral to the apical side, Papp (B-A). Papp (A-B)<2×10^−6 cm/s is predictive of low permeability to the basolateral side, 2×10^−6 cm/s<Papp (A-B)<20×10^−6 cm/s is predictive of medium permeability, and Papp (A-B)>20×10^−6 cm/s is predictive of high permeability. In the B-A permeability assay, Papp (B-A) is measured and compounds evaluated for efflux potential. Together, these assay results are reported as a ratio of Papp (B-A) to Papp (A-B). Papp (B-A)/Papp (A-B)>3 are likely to be transported by one of the efflux systems, and have poor absorption. Papp (B-A)/Papp (A-B)<3 are likely to show reasonable intestinal absorption. An in vitro drug absorption assay suitable for use in predicting intestinal absorption of the compounds useful in the methods of the invention is described in this example. The embodiments of this assay described in this example were developed by Shanghai ChemPartner Co., Ltd., a corporation of China with its principal office located at 720 Cailun Road, Building No. 3, Shanghai 201203, China.
Caco-2 (ATCC, catalog No. HTB-37™) cells are cultured in growth medium (MEM+10% FBS+1% NEAA). The growth medium is prepared by adding 50 mL FBS and 5 mL NEAA to 445 mL of MEM or by adjusting the final volume according to actual needs. Trypsin-EDTA (Invitrogen, Cat #25200-072) is also used.
Hanks Balanced Salt Solution (HBSS, Invitrogen, Cat #14025-092) with 25 mM HEPES, pH 7.4, HBSS buffer with 0.2% DMSO (50 μL DMSO into 25 ml HBSS buffer), and HBSS buffer with 0.4% DMSO (100 μL DMSO into 25 ml HBSS buffer) are used.
10 mM stock solutions of a compound is prepared in DMSO and Lucifer Yellow in assay buffer using the formula (Actual Weight/Molecular Weight)/mL solvent=10 mM. Erythromycin, Metoprolol, and Atenolol are used as reference compounds. Donor solutions (10 μM for compounds and 5 μM for Lucifer Yellow) are prepared. For A-B, 4 μL of 10 mM compound stock solution and 2 μL of 10 mM Lucifer Yellow stock solution are loaded into 4 mL of HBSS buffer, and centrifuged (5 min, 4000 rpm) to precipitate undissolved particles. Supernatants are collected for compound dosing. For B-A, 4 μL (compounds) of 10 mM compound stock solution is added to 4 mL HBSS buffer with 0.2% DMSO, and centrifuged (5 min, 4000 rpm) to precipitate undissolved particles. Supernatants are collected for compound dosing.
Receiver solutions are prepared. For A-B, the solution is HBSS buffer with 0.4% DMSO. For B-A, 2 μL of 10 mM Lucifer Yellow stock solution is added to 4 mL of HBSS buffer with 0.2% DMSO. Compound solutions are prepared for standard curve (3 μM/1 μM/0.2 μM/0.04 μM/0.01 μM/0.005 μM):
1× solution: 3 μL of 20× solution (0.1-60 μM)+57 μL 0.4% DMSO HBSS+60 μL acetonitrile (ACN) with internal standard (IS, 200 ng/mL Osalmid). The assay was performed as described below
Stock cultures are maintained in MEM+10% FBS+1% NEAA, grown in 75 cm^2 tissue culture treated flasks and split (passed) 2 times weekly to maintain desired confluence. For maintenance passage, trypsinized cells are routinely distributed into new flasks at a standard passage ratio of 1:4. […]

Row | Compound | mouse liver microsome (MLM), % parent remaining ([1]; after 15 min) | mouse liver microsome (MLM), % parent remaining ([1]; after 30 min) | mouse liver microsome (MLM), % parent remaining ([1]; after 60 min) | human liver microsome (HLM, % parent remaining) ([2]; after 15 min) | human liver microsome (HLM, % parent remaining) ([2]; after 30 min) | human liver microsome (HLM, % parent remaining) ([2]; after 60 min) | liver stability predicted by in vitro PK profiles [2] | efflux ratio at 90 min, 10 µM [3] | Papp A→B at 90 min, 10 µM [3] | Papp B→A at 90 min, 10 µM [3]
1 | Cn1nc(C(=O)NC2CCN(CCN3CCCCC3)CC2)c2ccc(N3CCCCCC3)nc21 [EBP1047] | 56 % parent remaining | 29 % parent remaining | 12 % parent remaining | 78 % parent remaining | 62 % parent remaining | 34 % parent remaining | higher stability in human liver vs rat liver |  |  | 
2 | CCN1CCC(NC(=O)c2nn(C)c3nc(N4CCCCCC4)ccc23)CC1 [EBP1595] | 67 % parent remaining | 50 % parent remaining | 17 % parent remaining | 73 % parent remaining | 46 % parent remaining | 14 % parent remaining | higher stability in human liver vs rat liver | 0.9 |  | 
3 | Cn1nc(C(=O)NC2CCN(CCN3CCCC3)CC2)c2ccc(N3CCCCCC3)nc21 [EBP1597] | 67 % parent remaining | 32 % parent remaining | 14 % parent remaining | 81 % parent remaining | 74 % parent remaining | 57 % parent remaining | higher stability in human liver vs rat liver | 0.8 |  | 
4 | CC(C)N1CCC(NC(=O)c2nn(C)c3nc(N4CCCCCC4)ccc23)CC1 [EBP1604] | 57 % parent remaining | 40 % parent remaining | 14 % parent remaining | 71 % parent remaining | 63 % parent remaining | 28 % parent remaining | higher stability in human liver vs rat liver | 0.8 | 120 nm/s | 90 nm/s
5 | Cn1nc(C(=O)NC2CCNCC2)c2ccc(N3CCCCCC3)nc21.O=C(O)C(F)(F)F.O=C(O)C(F)(F)F [compound 697] | 85 % parent remaining | 74 % parent remaining | 44 % parent remaining | 96 % parent remaining | 109 % parent remaining | 108 % parent remaining |  |  | 55 nm/s | 480 nm/s
6 | CCC(CC)Oc1ccc2c(C(=O)NC3CCNCC3)n[nH]c2n1 [compound 726] | 99 % parent remaining | 96 % parent remaining | 86 % parent remaining | 86 % parent remaining | 81 % parent remaining | 65 % parent remaining |  |  | 35 nm/s | 410 nm/s
7 | Clc1ccc(Cn2nc(COCCCN3CCCCC3)c3ccc(N4CCCCCC4)nc32)cc1 [compound 749] |  |  |  |  |  |  |  |  | 4.4 nm/s | 5.2 nm/s
8 | CCC(CC)Oc1ccc2c(COCC3CCCNC3)nn(Cc3ccc(Cl)cc3)c2n1.O=C(O)C(F)(F)F (stereo not drawn) [compound 755] |  |  |  |  |  |  |  |  | 4 nm/s | 2 nm/s
9 | O=C(NC1CCNCC1)c1nn(C(=O)C2CCCCC2)c2nc(N3CCCCCC3)ccc12.O=C(O)C(F)(F)F.O=C(O)C(F)(F)F.O=C(O)C(F)(F)F [compound 989] |  |  |  |  |  |  |  |  | 50 nm/s | 30 nm/s
10 | Cn1nc(C(=O)NC2CCN(CCN3CCCCC3)CC2)c2ccc(N3CCCCCC3)nc21 [compound 1047] | 56 % parent remaining | 29 % parent remaining | 12 % parent remaining | 78 % parent remaining | 62 % parent remaining | 34 % parent remaining |  |  | 105 nm/s | 76 nm/s
11 | Cn1nc(C(=O)NC2CCN(CC3CCCCC3)CC2)c2ccc(N3CCCCCCC3)nc21 [compound 1062] |  |  |  |  |  |  |  |  | 17 nm/s | 6 nm/s
12 | Cn1nc(C(=O)NC2CCN(CC(F)F)CC2)c2ccc(N3CCCCCC3)nc21 [compound 1110] | 15 % parent remaining | 1 % parent remaining | 0.4 % parent remaining | 8 % parent remaining | 0.4 % parent remaining | 0.4 % parent remaining |  |  | 138 nm/s | 101 nm/s
13 | Cn1nc(CCCN2CCCC2)c2ccc(N3CCCCCCC3)nc21 [compound 1171] | 22 % parent remaining | 3 % parent remaining | 1 % parent remaining | 67 % parent remaining | 44 % parent remaining | 23 % parent remaining |  |  | 170 nm/s | 110 nm/s
